Results as given in patent publication EP4592296A1, “NOVEL TETRAHETEROCYCLE COMPOUND” (Idience Co., Ltd., priority 2022, dated 2024).

How the values were obtained:
KRAS^G12D = target: T1, KRAS^G12D (Homo sapiens, UniProt P01116, G12D); assay: KRAS nucleotide exchange assay (SOS1-mediated, HTRF); type: biochemical; details: KRAS 20 nM, SOS1 12.5 nM, labeled GTP 0.15 µM, 60 min preincubation
T1 construct: GST-tagged KRAS WT or mutant proteins (amino acids 2-169)
Text: (§1) Evaluation of the inhibitory effect of compounds on SOS1-mediated nucleotide exchange activity of KRAS^WT, KRAS^G12D, and KRAS^G12V mutants
(§2) A method to monitor SOS1-mediated exchange of unlabeled KRAS-bound GDP and fluorescently labeled GTP, based on energy transfer between the donor Tb cryptate-labeled GST antibody and the acceptor DY-647P1 GTP when they are in close proximity.
(§3) • GST-tagged KRAS WT or mutant proteins (amino acids 2-169), • SOS1(amino acids 564-1049), • Labeled GTP (GTP-DY-647P1), • Assay Buffer (20 mM HEPES pH 7.4, 150 mM NaCl, 5 mM MgCl2, 1 mM DTT, 0.05% BSA, 0.0025% NP40)
(§4) • 1. KRAS protein was diluted with assay buffer to 1.5 times the final concentration, mixed with Tb cryptate anti-GST antibody, and 10 µL was added to each assay well (final concentration was 20 nM for KRAS^WT, KRAS^G12D, and KRAS^G12V). • 2. The compound was dissolved in DMSO and then diluted to prepare 100 times the final concentration. • 3. Compounds were dispensed into assay wells using an ECHO acoustic dispenser (Beckman), gently mixed with the KRAS/Ab mixture, and incubated for 60 minutes. • 4. SOS1 and labeled GTP were mixed and diluted to 3 times the final concentration with assay buffer, and 5 µL of the solution was added to the assay well to initiate the reaction (final concentration of labeled GTP was 0.15 µM, final concentration of SOS1 was 7.5 nM in WT, 12.5 nM in G12D, and 50 nM in G12V). Blank wells contained only assay buffer and labeled GTP. • 5. The reaction was monitored at Ex/Em=(337/665; 337/620) using a Pherastar Plate Reader (BMG). • 6. The HTRF signal was analyzed approximately 25 minutes after the start of the reaction (G12V reacted for 60 minutes). • 7. Nucleotide exchange activity was expressed as a percentage difference compared to the DMSO reaction value, and the IC50 value was calculated based on the four-parameter logistic equation in GraphPad 4.0 software. HTRF signal = ems 665/ems 620∗10000 [formula]

[1] = test system: AsPC-1 pancreatic cancer (KRAS G12D mutation) cells; assay: Cell proliferation assay (CellTiter-Glo cell viability); type: cell-based; details: AsPC-1 cells, CellTiter-Glo 2.0
Description: (§5) Cell viability test of test compounds in AsPC-1 pancreatic cancer (KRAS G12D mutation) or SW480 colon cancer (KRAS G12V mutation) cells for 72 hours
(§6) The reference compound Staurosporine was purchased from Sigma-Aldrich (Saint Louis, […]), and CellTiter-Glo® 2.0 Luminescent cell viability assay reagent (cat# G9243) was purchased from Promega (Madison, WI). AsPC-1 and SW480 cell lines were purchased from the American Type Culture Collection (Manassas, VA). AsPC-1 cells were cultured in RPMI-1640 (ATCC, cat#30-2001), and SW480 cells were cultured in DMEM (ATCC cat#30-2002), supplemented with 10% FBS (Sigma-Aldrich, cat#F2442) and 100 µg/mL penicillin-streptomycin (Sigma-Aldrich, cat#P4333). Cells were cultured at 37 °C in a humidified atmosphere of 5 % CO2 and 95 % air.
(§7) • 1. The test compound and reference compound Staurosporine were dissolved in DMSO solution to prepare 20 mM (test compound) and 10 mM (reference compound Staurosporine) in the Source Plate, and diluted 3-fold and 10 doses with DMSO. • 2. Ten volumes of 125 nL test compound or 25 nL reference compound from the Source Plate were dispensed into wells of a 384-well culture plate (VWR, cat#82050-076) using an Echo 655. • 3. 25 µL of culture medium including 2000 AsPC-1 or SW480 cells was dispensed into each 384-well cell culture plate. • 4. Cells were cultured with compounds at 37 °C, 5 % CO2for 72 hours. • 5. 25 µL of CellTiter-Glo 2.0 reagent was added to each well of the plate. • 6. The contents were mixed in an orbital shaker for 2 minutes and the luminescence signal was stabilized at room temperature for 15 minutes. • 7. Luminescence signals were measured with an Envision 2104 Multilabel Reader (PerkinElmer, Santa Clara, CA), and the number of viable cells was determined by quantifying the ATP present in each culture medium. • 8. IC50 values were calculated based on the sigmoidal dose-response equation in the GraphPad Prism 4 program.

KRAS^WT = target: T2, KRAS^WT (Homo sapiens, UniProt P01116); assay: KRAS nucleotide exchange assay (SOS1-mediated, HTRF); type: biochemical; details: KRAS 20 nM, SOS1 7.5 nM, labeled GTP 0.15 µM
T2 construct: GST-tagged KRAS WT or mutant proteins (amino acids 2-169)
Text: as §1, §2, §3, §4

[2] = test system: SW480 colon cancer (KRAS G12V mutation) cells; assay: Cell proliferation assay (CellTiter-Glo cell viability); type: cell-based; details: Homo sapiens, 72 hours, CellTiter-Glo 2.0
Description: as §5, §6, §7

KRAS^G12V = target: T3, KRAS^G12V (Homo sapiens, UniProt P01116, G12V); assay: KRAS nucleotide exchange assay (SOS1-mediated, HTRF); type: biochemical; details: KRAS 20 nM, SOS1 50 nM, labeled GTP 0.15 µM, reacted 60 minutes
T3 construct: GST-tagged KRAS WT or mutant proteins (amino acids 2-169)
Text: as §1, §2, §3, §4

KRAS G12C = target: T4, KRAS G12C (Homo sapiens, UniProt P01116, G12C); assay: as above; type: biochemical; details: conditions for G12C not described
T4 construct: GST-tagged KRAS WT or mutant proteins (amino acids 2-169)

KRAS G13D = target: T5, KRAS G13D (Homo sapiens, UniProt P01116, G13D); assay: as above; type: biochemical; details: conditions for G13D not described
T5 construct: GST-tagged KRAS WT or mutant proteins (amino acids 2-169)
T5 sequence (P01116 2-169 isoform P01116-2 G13D): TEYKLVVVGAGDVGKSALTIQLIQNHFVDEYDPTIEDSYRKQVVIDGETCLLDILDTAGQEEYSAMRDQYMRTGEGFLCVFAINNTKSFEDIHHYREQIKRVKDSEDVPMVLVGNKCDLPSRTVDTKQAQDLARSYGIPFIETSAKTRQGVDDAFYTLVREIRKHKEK

T1 sequence (P01116 2-169 isoform P01116-2 G12D): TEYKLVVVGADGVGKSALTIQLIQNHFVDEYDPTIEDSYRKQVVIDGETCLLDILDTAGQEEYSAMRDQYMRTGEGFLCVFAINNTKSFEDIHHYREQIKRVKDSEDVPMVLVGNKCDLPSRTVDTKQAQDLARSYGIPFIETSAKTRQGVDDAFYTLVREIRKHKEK
T3 sequence (P01116 2-169 isoform P01116-2 G12V): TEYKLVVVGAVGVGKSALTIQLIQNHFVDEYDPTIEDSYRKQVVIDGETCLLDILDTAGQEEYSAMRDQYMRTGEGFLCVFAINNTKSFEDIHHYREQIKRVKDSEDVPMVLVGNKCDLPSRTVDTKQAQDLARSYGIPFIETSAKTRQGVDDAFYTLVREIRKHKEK
T2 sequence (P01116 2-169 isoform P01116-2): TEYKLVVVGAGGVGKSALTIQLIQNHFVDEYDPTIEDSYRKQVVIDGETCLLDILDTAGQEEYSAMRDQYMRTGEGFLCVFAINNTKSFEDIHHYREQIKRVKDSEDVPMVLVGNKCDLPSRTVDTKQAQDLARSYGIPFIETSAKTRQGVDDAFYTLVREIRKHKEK
T4 sequence (P01116 2-169 isoform P01116-2 G12C): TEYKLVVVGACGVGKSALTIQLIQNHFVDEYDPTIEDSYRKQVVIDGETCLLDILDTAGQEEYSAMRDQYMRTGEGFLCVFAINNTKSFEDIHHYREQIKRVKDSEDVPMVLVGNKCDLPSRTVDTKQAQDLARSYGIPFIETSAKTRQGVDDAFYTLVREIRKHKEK

Structure (SMILES)	IC50 (KRAS^G12D) [nM]	IC50 ([1]; Homo sapiens, ASPC1, 72 h) [nM]	other results
CCc1c(F)ccc2cc(O)cc(-c3nc4c5c(nc(OC[C@@]67CCCN6C[C@H](F)C7)nc5c3F)N3CCNC[C@@H]3CC(C)O4)c12 (stereo partly drawn) [Example 5, 5-ethyl-6-fluoro-4-((6aS)-1-fluoro-12-(((2R,7aS)-2-fluorotetrahydro-1H-pyrrolizin-7a(5H)-yl)methoxy)-5-methyl-6,6a,7,8,9,10-hexahydro-5H-4-oxa-3,8,10a,11,13-pentaazabenzo[4,5]cycloocta[1,2,3-de]naphthalen-2-yl)naphthalen-2-ol]	12.5		
CCc1c(F)ccc2cc(O)cc(-c3nc4c5c(nc(OC[C@@]67CCCN6C[C@H](F)C7)nc5c3F)N3CCNC[C@@H]3CCO4)c12 [Example 1, 5-ethyl-6-fluoro-4-((S)-1-fluoro-12-(((2R,7aS)-2-fluorotetrahydro-1H-pyrrolizin-7a(5H)-yl)methoxy)-6,6a,7,8,9,10-hexahydro-5H-4-oxa-3,8,10a,11,13-pentaazabenzo[4,5]cycloocta[1,2,3-de]naphthalen-2-yl)naphthalen-2-ol]	5.95	> 20000	IC50 (KRAS^WT): 6.5 nM
Oc1cc(Cl)c(C2CC2)c(-c2nc3c4c(nc(OCC56CCCN5CC(F)C6)nc4c2F)N2CCNCC2CCO3)c1 [Example 4, 3-chloro-4-cyclopropyl-5-((S)-1-fluoro-12-(((2R,7aS)-2-fluorotetrahydro-1H-pyrrolizin-7a(5H)-yl)methoxy)-6,6a,7,8,9,10-hexahydro-5H-4-oxa-3,8,10a,11,13-pentaazabenzo[4,5]cycloocta[1,2,3-de]naphthalen-2-yl)phenol]	52.5		
C#Cc1c(F)ccc2cc(O)cc(-c3nc4c5c(nc(OC[C@@]67CCCN6C[C@H](F)C7)nc5c3F)N3CCNC[C@@H]3CCO4)c12 [Example 2, 5-ethynyl-6-fluoro-4-((S)-1-fluoro-12-(((2R,7aS)-2-fluorotetrahydro-1H-pyrrolizin-7a(5H)-yl)methoxy)-6,6a,7,8,9,10-hexahydro-5H-4-oxa-3,8,10a,11,13-pentaazabenzo[4,5]cycloocta[1,2,3-de]naphthalen-2-yl)naphthalen-2-ol]	2.75	> 20000	IC50 [2]: > 20000 nM; IC50 (KRAS^G12V): 2.89 nM
N#Cc1c(N)sc2c(F)ccc(-c3c(Cl)c4c5c(nc(OC[C@@]67CCCN6C[C@H](F)C7)nc5c3F)N3CCCOC[C@H]3CO4)c12 (single isomer, unassigned) [Example 12a]			IC50 ([1]; 72 hours): 2000 to 20000 nM
N#Cc1c(N)sc2c(F)ccc(-c3c(Cl)c4c5c(nc(OC[C@@]67CCCN6C[C@H](F)C7)nc5c3F)N3CCCCC[C@@H]3CO4)c12 [Example 11a, 2-amino-4-(3-chloro-1-fluoro-13-(((2R,7aS)-2-fluorotetrahydro-1H-pyrrolizin-7a(5H)-yl)methoxy)-5a,6,7,8,9,10-hexahydro-5H-azepino[2',1':3,4][1,4]oxazepino[5,6,7-de]quinazolin-2-yl)-7-fluorobenzo[b]thiophene-3-carbonitrile]		2000 to 20000	
N#Cc1c(N)sc2c(F)ccc(-c3c(Cl)c4c5c(nc(OC[C@@]67CCCN6C[C@H](F)C7)nc5c3F)N3CCCOC[C@H]3CO4)c12 (single isomer, unassigned) [Example 12b]		< 2000	
N#Cc1c(N)sc2c(F)ccc(-c3c(Cl)c4c5c(nc(OC[C@@]67CCCN6C[C@H](F)C7)nc5c3F)N3CCCCC[C@H]3CO4)c12 [Example 11b, 2-amino-4-(3-chloro-1-fluoro-13-(((2R,7aS)-2-fluorotetrahydro-1H-pyrrolizin-7a(5H)-yl)methoxy)-5a,6,7,8,9,10-hexahydro-5H-azepino[2',1':3,4][1,4]oxazepino[5,6,7-de]quinazolin-2-yl)-7-fluorobenzo[b]thiophene-3-carbonitrile]		< 2000	
Nc1nc2c(-c3c(Cl)c4c5c(nc(OC[C@@]67CCCN6C[C@H](F)C7)nc5c3F)N3CCCCCC3CO4)ccc(F)c2s1 (stereo partly drawn) [Example 6, 4-(3-chloro-1-fluoro-13-(((2R,7aS)-2-fluorotetrahydro-1H-pyrrolizin-7a(5H)-yl)methoxy)-5a,6,7,8,9,10-hexahydro-5H-azepino[2',1':3,4][1,4]oxazepino[5,6,7-de]quinazolin-2-yl)-7-fluorobenzo[d]thiazol-2-amine]	5.9	< 2000	IC50 (KRAS G12C): 2.36 nM; IC50 (KRAS^G12V): 5.9 nM; IC50 (KRAS G13D): 11.1 nM
Nc1nc2c(-c3c(Cl)c4c5c(nc(OC[C@@]67CCCN6C[C@H](F)C7)nc5c3F)N3CCCOC[C@H]3CO4)ccc(F)c2s1 [Example 7, 4-((14aS)-12-chloro-10-fluoro-8-(((2R,7aS)-2-fluorotetrahydro-1H-pyrrolizin-7a(5H)-yl)methoxy)-4,5,14,14a-tetrahydro-1H,3H-[1,4]oxazepino[3',4':3,4][1,4]oxazepino[5,6,7-de]quinazolin-11-yl)-7-fluorobenzo[d]thiazol-2-amine]		< 2000	
Nc1nc2c(-c3c(Cl)c4c5c(nc(OC[C@@]67CCCN6C[C@H](F)C7)nc5c3F)N3CCNC[C@@H]3CCO4)ccc(F)c2s1 [Example 3, 4-((14aS)-11-chloro-9-fluoro-7-(((2R,7aS)-2-fluorotetrahydro-1H-pyrrolizin-7a(5H)-yl)methoxy)-1,3,4,13,14,14a-hexahydro-2H-pyrazino[1',2':5,6][1,5]oxazocino[4,3,2-de]quinazolin-10-yl)-7-fluorobenzo[d]thiazol-2-amine]	7.84	2000 to 20000	
